Data from ChEMBL document CHEMBL1142737, “Organometallic anticancer agents: cellular uptake and cytotoxicity studies on thiol derivatives of the antitumor agent molybdocene dichloride” (J Med Chem, 2005).

Columns and labels:
[1] = Ability to inhibit the growth of ovarian cell line 2008; format: cell-based, Homo sapiens
[2] = […] lethal dose in CF1 mice bearing fluid Ehrlich Ascites tumor at a dose of 75-100 mg/kg; format: ADME, organism-based; conditions: mouse, in vivo
[3] = Cytotoxicity against V79 chinese hamster lung cells was determined via MTT assay after 24 hr; format: cell-based, Cricetulus griseus
[4] = Ability to inhibit the growth of human breast line MCF-7
[5] = Cytotoxicity against V79 chinese hamster lung cells was determined via MTT assay after 72 hr; format: cell-based, Cricetulus griseus

With MOLYBDOCENE DICHLORIDE as the sequence, how does the IC50 [1] read?
Its IC50 is 700 µM.

What about the LD50 [2] of the same sequence?
Its LD50 is 175 mg/kg.

And the IC50 [3]?
Its IC50 is 820 µM.

What about the IC50 [4] of the same sequence?
Its IC50 is 620 µM.

And the IC50 [5]?
Its IC50 is 350 µM.
